target: hD2 recombinant receptor (human dopamine receptor type 2, long variant, CHO-Gα16-hD2L membranes) (Homo sapiens (Human), UniProt P14416); conditions: displacement of 0.08 nM [3H]-Spiperone

Row | SMILES | D2 pKi
1 | Cl.Cn1c(SCCCN2CC[C@]3(C[C@@H]3c3ccc(C(F)(F)F)cc3)C2)nnc1C1CCC(=O)NC1 (stereo partly drawn) [Example 121, 5-[4-methyl-5-({3-[(1R,3S)-1-[4-(trifluoromethyl)phenyl]-5-azaspiro[2.4]heptan-5-yl]propyl}sulfanyl)-4H-1,2,4-triazol-3-yl]piperidin-2-one hydrochloride] | 5.92
2 | Cn1c(SCCCN2CC[C@]3(CC3c3ccccc3C(F)(F)F)C2)nnc1-c1ccc(=O)[nH]c1 (stereo partly drawn) [Example 132, 5-[4-methyl-5-({3-[(1S,3S/1R,3R)-1-[2-(trifluoromethyl)phenyl]-5-azaspiro[2.4]heptan-5-yl]propyl}sulfanyl)-4H-1,2,4-triazol-3-yl]-1,2-dihydropyridin-2-one] | 6.87
3 | Cl.Cn1c(SCCCN2CC[C@]3(C[C@@H]3c3ccc(C(F)(F)F)cc3)C2)nnc1-c1ccc[nH]c1=O [Example 125, 3-[4-methyl-5-({3-[(1R,3S)-1-[4-(trifluoromethyl)phenyl]-5-azaspiro[2.4]heptan-5-yl]propyl}sulfanyl)-4H-1,2,4-triazol-3-yl]-1,2-dihydropyridin-2-one hydrochloride] | 5.48
4 | Cc1ncccc1-c1nnc(SCCCN2CC[C@]3(CC3c3ccccc3C(F)(F)F)C2)n1C.Cl.Cl (stereo partly drawn) [Example 168, (1S,3S/1R,3R)-5-(3-{[4-methyl-5-(2-methylpyridin-3-yl)-4H-1,2,4-triazol-3-yl]sulfanyl}propyl)-1-[2-(trifluoromethyl)phenyl]-5-azaspiro[2.4]heptane dihydrochloride] | 6.44
5 | Cn1c(SCCCN2CC[C@]3(CC3c3ccccc3C(F)(F)F)C2)nnc1-c1cc[nH]c(=O)c1 (stereo partly drawn) [Example 135, 4-[4-methyl-5-({3-[(1S,3S/1R,3R)-1-[2-(trifluoromethyl)phenyl]-5-azaspiro[2.4]heptan-5-yl]propyl}sulfanyl)-4H-1,2,4-triazol-3-yl]-1,2-dihydropyridin-2-one] | 6.54
6 | Cc1ccc(-c2nnc(SCCCN3CC[C@]4(CC4c4ccc(C(F)(F)F)cc4)C3)n2C)cn1 (stereo partly drawn) [Example 169, (1R,3S/1S,3R)-5-(3-{[4-methyl-5-(6-methylpyridin-3-yl)-4H-1,2,4-triazol-3-yl]sulfanyl}propyl)-1-[4-(trifluoromethyl)phenyl]-5-azaspiro[2.4]heptane] | 6.01
7 | Cl.Cn1c(SCCCN2CC[C@]3(C[C@@H]3c3ccc(C(F)(F)F)cc3F)C2)nnc1-c1ccn(C)c(=O)c1 [Example 139, 4-[5-({3-[(1S,3S)-1-[2-fluoro-4-(trifluoromethyl)phenyl]-5-azaspiro[2.4]heptan-5-yl]propyl}sulfanyl)-4-methyl-4H-1,2,4-triazol-3-yl]-1-methyl-1,2-dihydropyridin-2-one hydrochloride] | 5.83
8 | CN(C)C(=O)c1cccc(-c2nnc(SCCCN3CC[C@]4(C[C@@H]4c4ccc(C(F)(F)F)cc4)C3)n2C)n1.Cl [Example 197, N,N-dimethyl-6-[4-methyl-5-({3-[(1R,3S)-1-[4-(trifluoromethyl)phenyl]-5-azaspiro[2.4]heptan-5-yl]propyl}sulfanyl)-4H-1,2,4-triazol-3-yl]pyridine-2-carboxamide hydrochloride] | 5.66
9 | CC(=O)N1CCC(c2nnc(SCCCN3CC[C@]4(C[C@@H]4c4ccc(C(F)(F)F)cc4F)C3)n2C)CC1.Cl [Example 102, 1-{4-[5-({3-[(1S,3S)-1-[2-fluoro-4-(trifluoromethyl)phenyl]-5-azaspiro[2.4]heptan-5-yl]propyl}sulfanyl)-4-methyl-4H-1,2,4-triazol-3-yl]piperidin-1-yl}ethan-1-one hydrochloride] | 6.00
10 | Cc1cncc(-c2nnc(SCCCN3CC[C@]4(CC4c4ccc(C(F)(F)F)cc4)C3)n2C)n1 (stereo partly drawn) [Example 222, (1R,3S/1S,3R)-5-(3-{[4-methyl-5-(6-methylpyrazin-2-yl)-4H-1,2,4-triazol-3-yl]sulfanyl}propyl)-1-[4-(trifluoromethyl)phenyl]-5-azaspiro[2.4]heptane] | 5.91
11 | Cn1c(SCCCN2CC[C@]3(CC3c3ccc(F)cc3F)C2)nnc1-c1ccc(=O)[nH]c1 (stereo partly drawn) [Example 130, 5-[5-({3-[(1S,3S/1R,3R)-1-(2,4-difluorophenyl)-5-azaspiro[2.4]heptan-5-yl]propyl}sulfanyl)-4-methyl-4H-1,2,4-triazol-3-yl]-1,2-dihydropyridin-2-one] | 6.16
12 | Cn1c(SCCCN2CC[C@]3(C[C@H]3c3ccc(C(F)(F)F)cc3F)C2)nnc1-c1ccncc1 [Example 164, (1R,3S/1S,3R)-1-[2-fluoro-4-(trifluoromethyl)phenyl]-5-(3-{[4-methyl-5-(pyridin-4-yl)-4H-1,2,4-triazol-3-yl]sulfanyl}propyl)-5-azaspiro[2.4]heptane] | 6.23
13 | Cn1c(SCCCN2CC[C@]3(CC3c3ccc(C(F)(F)F)cc3)C2)nnc1-c1cccnc1F (stereo partly drawn) [Example 173, (1R,3S/1S,3R)-5-(3-{[5-(2-fluoropyridin-3-yl)-4-methyl-4H-1,2,4-triazol-3-yl]sulfanyl}propyl)-1-[4-(trifluoromethyl)phenyl]-5-azaspiro[2.4]heptane] | 5.75
14 | Cn1c(SCCCN2CC[C@]3(CC3c3ccc(C(F)(F)F)cc3)C2)nnc1-c1ccc[nH]c1=O (stereo partly drawn) [Example 124, 3-[4-methyl-5-({3-[(1R,3S/1S,3R)-1-[4-(trifluoromethyl)phenyl]-5-azaspiro[2.4]heptan-5-yl]propyl}sulfanyl)-4H-1,2,4-triazol-3-yl]-1,2-dihydropyridin-2-one] | 5.32
15 | Cc1ccc(C(N)=O)nc1-c1nnc(SCCCN2CC[C@]3(C[C@@H]3c3ccc(C(F)(F)F)cc3)C2)n1C.Cl [Example 199, 5-methyl-6-[4-methyl-5-({3-[(1R,3S)-1-[4-(trifluoromethyl)phenyl]-5-azaspiro[2.4]heptan-5-yl]propyl}sulfanyl)-4H-1,2,4-triazol-3-yl]pyridine-2-carboxamide hydrochloride] | 5.81
16 | Cl.Cn1c(SCCCN2CC[C@]3(C[C@@H]3c3ccc(C(F)(F)F)cc3)C2)nnc1C1CCN(C(=O)C2CC2)CC1 [Example 106, (1R,3S)-5-(3-{[5-(1-cyclopropanecarbonylpiperidin-4-yl)-4-methyl-4H-1,2,4-triazol-3-yl]sulfanyl}propyl)-1-[4-(trifluoromethyl)phenyl]-5-azaspiro[2.4]heptane hydrochloride] | 6.05
17 | Cn1c(SCCCN2CC[C@]3(CC3c3ccc(C(F)(F)F)cc3)C2)nnc1C1CCC(N)CC1 (stereo partly drawn) [Example 108, 4-[4-methyl-5-({3-[(1R,3S/1S,3R)-1-[4-(trifluoromethyl)phenyl]-5-azaspiro[2.4]heptan-5-yl]propyl}sulfanyl)-4H-1,2,4-triazol-3-yl]cyclohexan-1-amine] | 6.72
18 | Cc1cnc(-c2nnc(SCCCN3CC[C@]4(CC4c4ccc(C(F)(F)F)cc4)C3)n2C)cn1 (stereo partly drawn) [Example 223, (1R,3S/1S,3R)-5-(3-{[4-methyl-5-(5-methylpyrazin-2-yl)-4H-1,2,4-triazol-3-yl]sulfanyl}propyl)-1-[4-(trifluoromethyl)phenyl]-5-azaspiro[2.4]heptane] | 6.00

The remaining lines, values ahead:

Row | D2 pKi | SMILES
19 | 6.33 | Cn1c(SCCCN2CC[C@]3(C[C@@H]3c3ccc(C(F)(F)F)cc3)C2)nnc1-c1cnc(C(N)=O)cn1 [Example 228, 5-[4-methyl-5-({3-[(1R,3S)-1-[4-(trifluoromethyl)phenyl]-5-azaspiro[2.4]heptan-5-yl]propyl}sulfanyl)-4H-1,2,4-triazol-3-yl]pyrazine-2-carboxamide]
20 | 6.52 | Cl.Cn1c(SCCCN2CC[C@]3(C[C@@H]3c3ccc(C(F)(F)F)cc3)C2)nnc1-c1ccc(-c2nnco2)cc1 [Example 274, (1R,3S)-5-[3-({4-methyl-5-[4-(1,3,4-oxadiazol-2-yl)phenyl]-4H-1,2,4-triazol-3-yl}sulfanyl)propyl]-1-[4-(trifluoromethyl)phenyl]-5-azaspiro[2.4]heptane]
21 | 5.80 | Cl.Cn1c(SCCCN2CC[C@]3(C[C@@H]3c3ccc(C(F)(F)F)cc3)C2)nnc1-c1ccc2nncn2c1 [Example 268, (1R,3S)-5-{3-[(4-methyl-5-{[1,2,4]triazolo[4,3-a]pyridin-6-yl}-4H-1,2,4-triazol-3-yl)-sulfanyl]propyl}-1-[4-(trifluoromethyl)phenyl]-5-azaspiro[2.4]heptane]
22 | 6.18 | Cc1nnsc1-c1nnc(SCCCN2CC[C@]3(C[C@@H]3c3ccc(C(F)(F)F)cc3)C2)n1C.Cl [Example 262, (1R,3S)-5-(3-{[4-methyl-5-(4-methyl-1,2,3-thiadiazol-5-yl)-4H-1,2,4-triazol-3-yl]sulfanyl}propyl)-1-[4-(trifluoromethyl)phenyl]-5-azaspiro[2.4]heptane]
23 | 5.85 | Cc1nccnc1-c1nnc(SCCCN2CC[C@]3(C[C@@H]3c3ccc(C(F)(F)F)cc3)C2)n1C [Example 224, (1R,3S/1S,3R)-5-(3-{[4-methyl-5-(3-methylpyrazin-2-yl)-4H-1,2,4-triazol-3-yl]sulfanyl}propyl)-1-[4-(trifluoromethyl)phenyl]-5-azaspiro[2.4]heptane]
24 | 5.91 | Cc1nnc2ccc(-c3nnc(SCCCN4CC[C@]5(C[C@@H]5c5ccc(C(F)(F)F)cc5)C4)n3C)cn12 [Example 271, (1R,3S)-5-{3-[(4-methyl-5-{3-methyl-[1,2,4]triazolo[4,3-a]pyridin-6-yl}-4H-1,2,4-triazol-3-yl)sulfanyl]propyl}-1-[4-(trifluoromethyl)phenyl]-5-azaspiro[2.4]heptane]
25 | 6.04 | Cn1c(SCCCN2CC[C@]3(C[C@@H]3c3ccc(C(F)(F)F)cc3F)C2)nnc1-c1ccn2cnnc2c1 [Example 270, (1S,3S)-1-[2-fluoro-4-(trifluoromethyl)phenyl]-5-{3-[(4-methyl-5-{[1,2,4]triazolo[4,3-a]pyridin-7-yl}-4H-1,2,4-triazol-3-yl)sulfanyl]propyl}-5-azaspiro[2.4]heptane]
26 | 6.26 | Cn1cccc1-c1nnc(SCCCN2CC[C@]3(CC3c3ccc(C(F)(F)F)cc3)C2)n1C (stereo partly drawn) [Example 258, (1R,3S/1S,3R)-5-(3-{[4-methyl-5-(1-methyl-1H-pyrrol-2-yl)-4H-1,2,4-triazol-3-yl]sulfanyl}propyl)-1-[4-(trifluoromethyl)phenyl]-5-azaspiro[2.4]heptane]

Reference: patent publication US10239870B2, “Dopamine D3 receptor antagonists” (priority 2014, dated 2019)
